# Measurements published in patent US11504380B2, “Method of treatment of cirrhosis” (INVENTIVA, priority 2019, dated 2022).
# What was measured:
# Assay type in all cases: in vivo, Sprague Dawley rats
# [1] = tested on: rat model of cirrhosis induced by the administration of thioacetamide (TAA); test: Liver tissue mRNA expression by qPCR in TAA-induced cirrhotic rats; conditions: TAA-exposed rats, 100 mg/kg
# Description: (§1) Lanifibranor has been assessed in a rat model of cirrhosis induced by the administration of thioacetamide (TAA), which administration leads to the development of fibrosis in the early time points and then of cirrhosis in the late time points, turning for the majority of the animals to decompensated cirrhosis. Sprague Dawley rats (12-15 rats per groups) were intraperitoneally administered TAA (twice a week) for a period of twelve weeks to ensure reaching decompensated cirrhosis. At the end of this period, a TAA detoxification period of four days was observed. The rats were then orally administered for two weeks with either lanifibranor at 100 mg/kg/day in vehicle (methylcellulose 1%+poloxamer-188 0.1%), or with vehicle alone (control). At the end of the two weeks of treatment in vivo systemic and hepatic hemodynamics were determined and rats were then sacrificed, and plasma samples and liver tissue were harvested. RNA was extracted from liver tissue using Trizol (Life Technologies), and quantified with the help of a NanoDrop spectrophotometer. Reverse transcription was carried out following QuantiTect reverse transcription kit (Qiagen). qPCR was performed using PowerUp SYBR Green Master Mix (Thermo Fisher) and specific primers.
# [2] = tested on: rat model of cirrhosis induced by the administration of thioacetamide (TAA); test: Liver histology (Sirius Red collagen staining) and electron microscopy of sinusoidal fenestrae in TAA-induced cirrhotic rats; conditions: TAA-exposed rats, 100 mg/kg
# Description: as §1, with “Liver” for “RNA was extracted from liver”, “samples for histology were fixed in 4% formaldehyde (Sigma), embedded in paraffin, sectioned” for “using Trizol (Life Technologies),”, “stained” for “quantified”, “0.1% Sirius Red in picric acid aqueous solution (Sigma). Sinusoidal fenestrae were analyzed by electronic microscopy.” for “the help of a NanoDrop spectrophotometer. Reverse transcription was carried out following QuantiTect reverse transcription kit (Qiagen). qPCR was performed using PowerUp SYBR Green Master Mix (Thermo Fisher) and specific primers.”
# [3] = tested on: rat model of cirrhosis induced by the administration of thioacetamide (TAA); test: Liver tissue protein levels by Western blot in TAA-induced cirrhotic rats; conditions: TAA-exposed rats, 100 mg/kg, vs vehicle
# Description: (§2) Lanifibranor has been assessed in a rat model of cirrhosis induced by the administration of thioacetamide (TAA), which administration leads to the development of fibrosis in the early time points and then of cirrhosis in the late time points, turning for the majority of the animals to decompensated cirrhosis. Sprague Dawley rats (12-15 rats per groups) were intraperitoneally administered TAA (twice a week) for a period of twelve weeks to ensure reaching decompensated cirrhosis. At the end of this period, a TAA detoxification period of four days was observed. The rats were then orally administered for two weeks with either lanifibranor at 100 mg/kg/day in vehicle (methylcellulose 1%+poloxamer-188 0.1%), or with vehicle alone (control). At the end of the two weeks of treatment in vivo systemic and hepatic hemodynamics were determined and rats were then sacrificed, and plasma samples and liver tissue were harvested. Triton lysis buffer was used for protein extraction of liver tissue samples. Proteins were separated by molecular weight by electrophoresis using a sodium dodecylsulphate polyacrylamide gel, and transferred to a nitrocellulose membrane (Western blot).
# [4] = tested on: rat model of cirrhosis induced by the administration of thioacetamide (TAA); test: AST protein content in plasma of TAA-induced cirrhotic rats; conditions: TAA-exposed rats, 100 mg/kg, vs vehicle, p<0.005 (FIG. 8)
# Description: as §2, with “harvested.” for “harvested. Triton lysis buffer was used for protein extraction of liver tissue samples. Proteins were separated by molecular weight by electrophoresis using a sodium dodecylsulphate polyacrylamide gel, and transferred to a nitrocellulose membrane (Western blot).”
# [5] = tested on: rat model of cirrhosis induced by the administration of thioacetamide (TAA); test: Systemic and hepatic hemodynamics, ascites and body/organ weights in TAA-induced cirrhotic rats; conditions: for IHVR (intrahepatic resistance) / PBF (portal blood flow) / PP (portal pressure): 100 mg/kg/day
# Description: as §2, with “The hemodynamics measurements were obtained as follow: mean arterial pressure (MAP) and heart rate (HR) were measured by cannulating the femoral artery; portal pressure (PP)” for “Triton lysis buffer”, “measured” for “used for protein extraction of liver tissue samples. Proteins were separated”, “cannulating the ileocolic vein, both with” for “molecular weight by electrophoresis using”, “heparinized p50 catheter (Portex) connected” for “sodium dodecylsulphate polyacrylamide gel, and transferred”, “pressure probe; portal blood flow (PBF) was determined with the help of specific non-constrictive perivascular ultrasonic transit-time flow probe (Transonic Systems Inc.).” for “nitrocellulose membrane (Western blot).”
# [6] = TAA-exposed rats, 100 mg/kg/day orally for two weeks
# [7] = TAA-exposed rats, 100 mg/kg/day orally for two weeks, listed as lanifibranor
smiles,measurement,setting,value
"O=C(O)CCCc1cc2cc(Cl)ccc2n1S(=O)(=O)c1ccc2ncsc2c1 [Lanifibranor, 4-[1-(1,3-benzothiazol-6-ylsulfonyl)-5-chloroindol-2-yl]butanoic acid]",VCAM-1 mRNA expression,[1]; vs vehicle (FIG. 6),a trend
same,E-Selectin mRNA,"[1]; vs vehicle, P<0.05 (FIG. 6)",significant decrease
same,ICAM-1 mRNA,"[1]; vs vehicle, P<0.05 (FIG. 6)",significant decrease
same,TIMP1 mRNA expression,"[1]; vs vehicle, p<0.001 (FIG. 2)",significantly reduced
same,collagen 1a1 mRNA expression,"[1]; vs vehicle, p<0.005 (FIG. 1)",significant decrease
same,α-SMA expression at mRNA level,"[1]; vs vehicle, p<0.005 (FIG. 3a)",significantly reduced
same,TIMP2 mRNA expression,"[1]; vs vehicle, p<0.05 (FIG. 2)",significantly reduced
same,IL-6 mRNA expression,"[1]; vs vehicle, p<0.05 (FIG. 7)",significantly decreased
same,"collagen deposition (PicroSirius Red, PSR, staining)",[2],12.3%
same,sinusoidal capillarization (sinusoidal fenestrae),"[2]; vs vehicle, p<0.05 (FIG. 4), electronic microscopy",significantly reduced
same,histological decrease in collagen deposition compared to vehicle,[2]; PicroSirius Red staining,32%
same,protein level of Von Willebrand factor,[3]; p<0.01 (FIG. 5),significantly reduced
same,α-SMA expression at protein level,[3]; p<0.05 (FIG. 3a),significantly reduced
same,protein level of Desmin,[3]; p<0.05 (FIG. 3b),significantly reduced
same,AST protein content in plasma,[4],significantly decreased
same,Ascites,[5]; [6],16%
same,MAP (mean arterial pressure),[5]; [6],84 ± 2 mmHg
same,IHVR (intrahepatic resistance),[5]; [6],0.53 ± 0.06 mmHg · min/mL
same,PBF (portal blood flow),[5]; [6],23.5 ± 2.1 mL/min
same,PP (portal pressure),[5]; [6],11.2 ± 0.5 mmHg
same,IHVR (intrahepatic resistance),[5]; [7],0.75±0.1 mmHg · min/mL
same,PBF (portal blood flow),[5]; [7],no significant changes
same,PP (portal pressure),[5]; [7],11.2±0.5 mmHg
same,systemic hemodynamics,[5]; cirrhotic rats administered with lanifibranor vs vehicle,No effects
